According to paper PMC10743388, “Jacalin-Curcumin Complex Sensitizes the Breast Cancer MDA-MB-231 Cell Line” (International Journal of Molecular Sciences, 2023):

Target: T1, jacalin (Artocarpus integer, UniProt P18670+P18671)
T1 construct: native tetrameric lectin isolated from jackfruit seeds; labelled with Red-NHS 2nd Generation (Alexa Fluor 647) for MST
Assay: microscale thermophoresis with labelled jacalin; steady-state fluorescence titration also gave KD […]
Format: binding

T1 sequence (P18670 whole entry): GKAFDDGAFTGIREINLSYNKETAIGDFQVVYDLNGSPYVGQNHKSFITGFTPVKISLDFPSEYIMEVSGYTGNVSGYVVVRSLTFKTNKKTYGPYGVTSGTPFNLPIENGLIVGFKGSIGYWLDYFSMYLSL
T1 sequence (P18671 whole entry): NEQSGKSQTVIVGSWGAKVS

COc1cc(/C=C/C(=O)CC(=O)/C=C/c2ccc(O)c(OC)c2)ccc1O [curcumin]
Kd: 450 nM
